Literature values as cited in patent US20090087484A1, “Formulation and dosage form for increasing oral bioavailability of hydrophilic macromolecules” (priority 2007, published 2009).
Read-outs that look alike come from different tables or passages of the source.

Key:
[1] = in vivo

elimination half-life in urine (after oral administration) [h]	oral bioavailability (in humans)	elimination half-life (mean value, following IV injection) [h]	oral bioavailability [1]	Compound
4.8	approximately 3%	24		pentosan polysulfate sodium [PPS]
			about 0.15%	NC(=O)CC[C@@H]1NC(=O)[C@H](Cc2ccccc2)NC(=O)[C@H](Cc2ccc(O)cc2)NC(=O)CCSSC[C@@H](C(=O)N2CCC[C@H]2C(=O)N[C@H](CCCN=C(N)N)C(=O)NCC(N)=O)NC(=O)[C@H](CC(N)=O)NC1=O [dDAVP, Desmopressin]
